≈ marks a conversion by molar mass, not a printed value. Where “and” joins values, the source holds several entries; their conditions need not be identical. Equal values may be shown once. *1 amine or outer side, *2 acyl side, *3 side chain or, on linkers, in order; H or OH if unused. Where a SMILES comes first, the peptide text is derived from it. Bridges are numbered along the chain shown (N, C = ends). [ ]: non-standard residue; d: D form. X1 = CC(=O)NC(C(=O)OC(C(C)C)C(N[*:1])C(=O)[*:2])C(O)C(C)C; PhLac = O=C(O)[CH](O)Cc1ccccc1; NMeT = CN[CH](C(=O)O)[CH](C)O; NMeA = CN[CH](C)C(=O)O; NMeDha = C=C(NC)C(=O)O
Legend:
[1] = target: T1, MRGPRX4 (Homo sapiens, UniProt Q96LA9); test: IP1 accumulation HTRF assay, MRGPRX4; assay type: cell-based; set-up: key to IP1 Basal / IP1 accumulation with YM (Figure 1c) / response to agonist, MRGPRX4 / IP1 accumulation: % IP1: unstimulated mock-transfected = 0%, fully stimulated MRGPRX4 = 100%; details: for effect on nateglinide and DCA IP1 responses: inhibitor pretreatment 1 h (Fig. S1D-E); for effect on MRGPRX4 basal IP1 activity: no agonist (Figs. 1C and S1E); for IP1 accumulation with YM (Figure 1c): YM 1 µM, no agonist
T1 construct: expressed in transfected cells; host or cells: HEK293T
Experimental: (§1) HEK293T cells were transfected with 1 pg/cell of MRGPRX4 DNA, and the amount of DNA was kept constant at 2 pg/cell with pcDNA3.1(+) empty vector, unless otherwise specified. Twenty four hours after transfection, IP1 assay was performed as previously described ([51]). When applicable, cells were treated with 1 μM YM254890 (YM) or different concentrations of U73122 for 1 h prior to addition of agonist or buffer. After incubation for 2 h, HTRF reagents and IP1 calibration standards were added and incubated for 2 h in the dark at room temperature. Time-resolved fluorescence signals were read on the BioTek Synergy NEO-TRF Hybrid multi-mode reader (BioTek Instruments). All data were carried out in three independent experiments with three technical replicate each.
(§2) For characterization of the Tet-On Nluc-HT7-MRGPRX4-GFP10-1D4 construct, HEK293T cells were transfected as previously described with some modifications. Dox dose-response of NLuc-HT7-MRGPRX4-GFP10-1D4 DNA titration was assayed by transfecting HEK293T cells with either 1 or 2 pg/cell of NLuc-HT7-MRGPRX4-GFP10-1D4 construct. Receptor expression was induced 4 h after transfection with addition of different concentrations of dox for 20 h. For the RAMP DNA titration assay, cells were cotransfected with a constant amount of 1 pg/cell of NLuc-HT7-MRGPRX4-GFP10-1D4 DNA and 1, 0.75, 0.5, or 0 pg/cell of each HA-RAMP-OLLAS with the homogenous transfection method. Four hours after transfection, receptor expression was induced with addition of 1000 ng/ml dox. Twenty hours after induction, IP1 assay was performed.
(§3) Data reduction, standard calibration, and transformation of HTRF data were performed as previously described ([51]). Normalized IP1 values were calculated relative to the unstimulated mock-transfected cells (set to 0%) and fully stimulated MRGPRX4 (alone if applicable) (set to 100%).

[2] = target: T2, CALCRL + RAMP3 (Homo sapiens, UniProt O60896+Q16602); test: IP1 accumulation, CALCRL with RAMP3 and Gqs5; assay type: cell-based
T2 construct: 5-HT3a receptor signal peptide (X1) (N); expressed in transfected cells; host or cells: HEK293T
Experimental: (§4) Validation of CALCRL constructs was assayed by cotransfecting HEK293T cells with different tagged versions of CALCRL alone or with each RAMP and with the promiscuous Gqs5 Gq chimera protein, at a respective DNA ratio of 1:1:0.5. Gqs5 is an engineered Gq protein containing the last five amino acid residues of Gs, which allows Gs-coupled GPCRs to signal through Gq downstream signaling pathways ([55]). The homogenous transfection method described above was used for all DNA mixes. CALCRL:RAMP2:Gqs5-transfected cells served as positive control for RAMP functionality.
as §3

[3] = system: mock-transfected HEK293T cells; test: IP1 accumulation, mock-transfected cells; assay type: cell-based, human; set-up: IP1 Basal / IP1 span / IP1 Emax / IP1 accumulation, dose-response (Figure 1a) / IP1 accumulation with YM (Figure 1c) / IP1 accumulation: unit not given here; details: for IP1 Basal / IP1 Emax / IP1 span: Mock
Experimental: as §1, §4, §3

[4] = target: T3, CALCRL (Homo sapiens, UniProt Q16602); test: IP1 accumulation, CALCRL alone with Gqs5; assay type: cell-based
T3 construct: 5-HT3a receptor signal peptide (X1) (N); expressed in transfected cells; host or cells: HEK293T
Experimental: as §4, §3

[5] = system: Tet-On MRGPRX4; test: dox-induced total receptor expression, Nano-Glo luminescence; assay type: cell-based, human; details: normalized total luminescence (Fig. S5I); for EC50: Homo sapiens
Experimental: as §2
HEK293T cells were transfected with 1 pg/cell of Tet-On FLAG-NLuc-HT7-MRGPRX4-GFP10-1D4 alone or coexpressed with 0.7, 0.5, 0.3, or 0.1 pg/cell of each RAMP, and expression was induced 4 h after transfection with 1000 ng/ml dox. HEK293T cells transfected with 1 pg/cell of Tet-On CALCRL alone or with 0.5 pg/cell of RAMP2 served as controls. Twenty hours after transfection, media was replaced with BRET buffer. First, the HT7-tagged GPCR was labeled with “pulse” of 100 nM HaloTag Alexa Fluor 660 (cell impermeable, emission 690 nm) for 2 h at 16 °C in the dark. Next, a chase step was performed by adding 100 nM HaloTag 618 (cell permeable, emission 620 nm) for 2 h at 16 °C in the dark. Lastly, Nano-Glo Luciferase assay reagent was prepared per manufacturer’s instructions. Optimal dosage of dox was determined by selecting the concentration at the plateau from a dox dose-response experiment, in which dox-induced expression was assayed with the additional of Nano-Glo Luciferase assay reagent (Fig. S5I).
Data were acquired by measuring the luminescence at 460, 618, and 690 nm in kinetics mode on a SpectraMax i3X at 37 °C. The obtained emission intensity values were corrected, normalized, plotted against each other, and fitted to a linear equation to generate a scaling factor that was then used to calculate and graph the percentage surface labeling. Experiments were conducted in biological triplicate with three technical replicates each. The corrected 690/460 BRET ratio was normalized to the mean of MRGPRX4 alone (+dox). Similarly, total expression was normalized to the mean of the 460 nm luminescence for MRGPRX4 alone (+dox).

[6] = HA-CALCRL-1D4 + FLAG-RAMP3-OLLAS (Fig. S4J-L)
[7] = HA-CALCRL-1D4 + HA-RAMP3-OLLAS (Fig. S4J-L)
[8] = HA-CALCRL-GFP10-1D4 + FLAG-RAMP3-OLLAS (Fig. S4G-I)
[9] = HA-CALCRL-GFP10-1D4 + HA-RAMP3-OLLAS (Fig. S4G-I)
[10] = HA-CALCRL-1D4 series (Fig. S4J-L)
[11] = HA-CALCRL-GFP10-1D4 series (Fig. S4G-I)
[12] = HA-CALCRL-1D4 alone (Fig. S4J-L)
[13] = HA-CALCRL-GFP10-1D4 alone (Fig. S4G-I)
[14] = Tet-On MRGPRX4+RAMP2 (DNA ratio 1:0.5)

T1 sequence (Q96LA9 whole entry): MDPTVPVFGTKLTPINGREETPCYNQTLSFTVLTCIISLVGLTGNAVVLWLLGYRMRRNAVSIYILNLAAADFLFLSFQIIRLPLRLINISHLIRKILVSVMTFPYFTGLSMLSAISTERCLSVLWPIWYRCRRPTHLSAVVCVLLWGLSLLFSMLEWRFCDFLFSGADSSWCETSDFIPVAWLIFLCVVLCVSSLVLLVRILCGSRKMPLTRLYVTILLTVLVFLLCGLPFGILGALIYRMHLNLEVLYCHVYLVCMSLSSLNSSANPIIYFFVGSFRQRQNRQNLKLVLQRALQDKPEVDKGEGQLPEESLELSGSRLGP
T3 sequence (Q16602 23-461): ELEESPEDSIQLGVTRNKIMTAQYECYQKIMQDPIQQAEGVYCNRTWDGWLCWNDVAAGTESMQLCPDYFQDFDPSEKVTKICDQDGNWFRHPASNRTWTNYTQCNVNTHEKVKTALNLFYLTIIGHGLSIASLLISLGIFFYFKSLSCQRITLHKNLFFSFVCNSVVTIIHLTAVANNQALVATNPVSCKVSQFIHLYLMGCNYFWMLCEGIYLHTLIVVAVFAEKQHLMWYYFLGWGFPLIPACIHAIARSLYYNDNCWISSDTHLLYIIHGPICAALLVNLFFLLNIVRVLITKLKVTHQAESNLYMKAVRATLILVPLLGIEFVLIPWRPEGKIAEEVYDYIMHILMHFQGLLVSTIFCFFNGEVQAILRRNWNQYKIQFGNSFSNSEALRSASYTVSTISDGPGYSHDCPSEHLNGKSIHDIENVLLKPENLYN
T2 sequence (Q16602 23-461): as above
T2 sequence (O60896 28-148 limits assumed): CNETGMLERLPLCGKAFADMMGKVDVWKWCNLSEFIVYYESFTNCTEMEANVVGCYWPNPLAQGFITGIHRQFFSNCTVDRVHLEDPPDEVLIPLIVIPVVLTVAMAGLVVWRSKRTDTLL

COc1ccc2c(c1)CC[C@@H]1[C@@H]2CC[C@]2(C)[C@@H](NCCCCCCN3C(=O)C=CC3=O)CC[C@@H]12 [U73122]
IP1 accumulation ([1]; MRGX4, Basal, U73122 30uM, Fig S1e): 3.194 and 5.28
effect on nateglinide and DCA IP1 responses [1]: inhibited
effect on MRGPRX4 basal IP1 activity [1]: abolished

CC[C@H](C)[C@H](NC(=O)[C@H](CCC(N)=O)NC(=O)[C@H](Cc1c[nH]cn1)NC(=O)[C@H](C)NC(=O)[C@H](CC(C)C)NC(=O)[C@H](CCCCN)NC(=O)[C@H](CCC(N)=O)NC(=O)[C@@H](NC(=O)[C@@H](NC(=O)[C@@H]1CSSC[C@H](NC(=O)CNC(=O)[C@H](Cc2ccccc2)NC(=O)[C@H](CO)NC(=O)[C@H](CCCNC(=N)N)NC(=O)[C@H](CC(C)C)NC(=O)CNC(=O)[C@H](CCC(N)=O)NC(=O)[C@H](Cc2ccccc2)NC(=O)[C@H](CC(N)=O)NC(=O)[C@H](CC(N)=O)NC(=O)[C@H](CCSC)NC(=O)[C@H](CO)NC(=O)[C@H](CCC(N)=O)NC(=O)[C@H](CCCNC(=N)N)NC(=O)[C@@H](N)Cc2ccc(O)cc2)C(=O)N[C@@H](CCCNC(=N)N)C(=O)N[C@@H](Cc2ccccc2)C(=O)NCC(=O)N[C@@H]([C@@H](C)O)C(=O)N1)[C@@H](C)O)C(C)C)C(=O)N[C@@H](Cc1ccc(O)cc1)C(=O)N[C@@H](CCC(N)=O)C(=O)N[C@@H](Cc1ccccc1)C(=O)N[C@H](C(=O)N[C@@H](CC(=O)O)C(=O)N[C@@H](CCCCN)C(=O)N[C@@H](CC(=O)O)C(=O)N[C@@H](CCCCN)C(=O)N[C@@H](CC(=O)O)C(=O)N[C@@H](CC(N)=O)C(=O)N[C@H](C(=O)N[C@@H](C)C(=O)N1CCC[C@H]1C(=O)N[C@@H](CCCNC(=N)N)C(=O)N[C@@H](CO)C(=O)N[C@@H](CCCCN)C(=O)N[C@H](C(=O)N[C@@H](CO)C(=O)N1CCC[C@H]1C(=O)N[C@@H](CCC(N)=O)C(=O)NCC(=O)N[C@@H](Cc1ccc(O)cc1)C(N)=O)[C@@H](C)CC)C(C)C)[C@@H](C)O [Adrenomedullin]
Emax [2, 6]: 96%
IP1 Basal [2, 6]: 9.152
IP1 span [2, 6]: 86.8%
Emax [2, 7]: 108%
IP1 Basal [2, 7]: 8.590
IP1 span [2, 7]: 99.5%
Emax [2, 8]: 84.9%
IP1 Basal [2, 8]: 11.09
IP1 span [2, 8]: 73.8%
Emax [2, 9]: 102%
IP1 Basal [2, 9]: 9.590
IP1 span [2, 9]: 92%
IP1 Basal [3, 10]: 0.9133
IP1 Emax [3, 10]: 0.05397
IP1 span [3, 10]: -0.8593
IP1 Basal [3, 11]: 0.1993
IP1 Emax [3, 11]: 11.54
IP1 span [3, 11]: 11.34
IP1 Basal [4, 12]: 11.35
IP1 span [4, 12]: Unstable
Emax [4, 13]: 10.5%
IP1 Basal [4, 13]: 4.246
Span [4, 13]: 6.24%

C=C1C(=O)NC(C)C(=O)N(C)C(C)C(=O)NC(C(OC(=O)C(NC(C)=O)C(O)C(C)C)C(C)C)C(=O)N(C)C(C(C)OC)C(=O)OC(C)C(NC(C)=O)C(=O)OC(Cc2ccccc2)C(=O)N1C (centres unmarked) [YM254890] (Ac-T[PhLac][NMeDha]A[NMeA][X1][NMeT](Me); ester 1-C; configuration not given here)
IP1 accumulation with YM (Figure 1c) ([1]; MRGPRX4 0.125 pg DNA/cell): 1.405
IP1 accumulation with YM (Figure 1c) ([1]; MRGPRX4 0.25 pg DNA/cell): 1.309
IP1 accumulation with YM (Figure 1c) ([1]; MRGPRX4 0.5 pg DNA/cell): 1.374
IP1 accumulation with YM (Figure 1c) ([1]; MRGPRX4 1 pg DNA/cell): 1.6019
IP1 accumulation with YM (Figure 1c) ([1]; MRGPRX4 2 pg DNA/cell): 1.692
effect on nateglinide and DCA IP1 responses [1]: inhibited
effect on MRGPRX4 basal IP1 activity [1]: abolished
IP1 accumulation with YM (Figure 1c) ([3]; YM 1 µM, MRGPRX4 0 pg DNA/cell, no agonist): 1.719

C[C@H]1c2cccc(O)c2C(=O)C2=C(O)[C@]3(O)C(=O)C(C(N)=O)=C(O)[C@@H](N(C)C)[C@@H]3[C@@H](O)[C@@H]21 [dox, doxycycline]
EC50 [5, 14]: 8.07 ng/mL
EC50 ([5]; Tet-On MRGPRX4 alone): 4.05 ng/mL (≈ 9.1 nM)
total expression Basal [5, 14]: 0.003719
total expression Emax [5, 14]: 0.7930
total expression logEC50 [5, 14]: 0.9067
total expression span [5, 14]: 0.7893
total expression Basal ([5]; Tet-On MRGPRX4 alone): 0.009273
total expression Emax ([5]; Tet-On MRGPRX4 alone): 0.9497
total expression logEC50 ([5]; Tet-On MRGPRX4 alone): 0.6070
total expression span ([5]; Tet-On MRGPRX4 alone): 0.9404
